According to PubChem BioAssay (NCI):
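Cells were grown in 96-well plates and exposed to each compound for 48 hours at five concentrations; endpoints were interpolated linearly between bracketing concentrations, or set to the highest concentration if not reached. TGI denotes the concentration required for complete inhibition of growth.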

Assays:
Experiment in all cases: inhibition of tumour cell growth, NCI panel, 48 h
[1] = test system: SW-620 colon
[2] = test system: PC-3 prostate
[3] = test system: 786-0 renal
[4] = test system: HCT-116 colon
[5] = test system: UO-31 renal
[6] = test system: OVCAR-8 ovarian
[7] = test system: OVCAR-5 ovarian
[8] = test system: SF-268 CNS
[9] = test system: SK-MEL-28 melanoma
[10] = test system: HT29 colon
[11] = test system: ACHN renal
[12] = test system: RXF 393 renal
[13] = test system: LOX IMVI melanoma
[14] = test system: KM12 colon
[15] = test system: SK-MEL-5 melanoma
[16] = test system: HS 578T breast
[17] = test system: A549 NSCLC
[18] = test system: A498 renal
[19] = test system: NCI/ADR-RES ovarian
[20] = test system: SNB-19 CNS

| SMILES | TGI [1] [µM] | TGI [2] [µM] | TGI [3] [µM] | TGI [4] [µM] | TGI [5] [µM] | TGI [6] [µM] | TGI [7] [µM] | TGI [8] [µM] | TGI [9] [µM] | TGI [10] [µM] | TGI [11] [µM] | TGI [12] [µM] | TGI [13] [µM] | TGI [14] [µM] | TGI [15] [µM] | TGI [16] [µM] | TGI [17] [µM] | TGI [18] [µM] | TGI [19] [µM] | TGI [20] [µM] |
| --- | --- | --- | --- | --- | --- | --- | --- | --- | --- | --- | --- | --- | --- | --- | --- | --- | --- | --- | --- | --- |
| CN(C)c1ccc(-c2ccc(N(C)C)c3n[se]nc23)c2n[se]nc12 | > 100 | > 100 | > 100 | > 100 | > 100 | > 100 | > 100 | > 100 | > 100 | > 100 | > 100 | > 100 | > 100 | > 100 | > 100 | > 100 | > 100 | > 100 | > 100 |  |
| CC1(C)C2CC3C4CC5(Nc6ccccc6C5N41)[C@]3(C)CC2=O (some centres not stated) | > 50 | > 50 | > 50 | > 50 | > 50 | > 50 | > 50 | > 50 | > 50 | > 50 | > 50 | > 50 | > 50 | > 50 | > 50 | > 50 | > 50 | > 50 | > 50 |  |
| Cc1sc(C)c2c1C(=O)CC2N (configuration not stated) | 26.3 | > 60.6 | 22.5 | 28.9 | 29.5 | 44.9 | > 100 | > 57.3 | > 62.5 | > 59.3 | 31.2 | 34.8 | 32.2 | > 46.4 | > 100 | 98 | > 100 | > 100 | > 100 | > 100 |
| O=C1NC(=O)/C(=C/c2ccc(S(=O)(=O)N/N=C\C(O)C(O)C(O)C(O)CO)cc2)N1 (configuration not stated) | > 100 | > 100 | > 100 | > 100 | > 100 | > 100 | > 100 | > 100 | > 100 | > 100 | > 100 | > 100 | > 100 | > 100 | > 100 | > 100 | > 100 | > 100 | > 100 | > 100 |
| C=CC(Br)(CBr)CCC(Br)C(C)(C)Cl (configuration not stated) | 5.67 | 9.1 | 5.64 | 3.4 | 3.97 | 10.2 | 14.5 | 4.51 | 6 | 2.9 | 6.07 | 8.86 |  | 3.92 | 23.4 | 14.7 | 28.6 | 9.46 | 18.6 | 4.51 |
| N#Cc1c(O)c(N=Nc2ccc(Cl)cc2)c(=O)n2c1[nH]c1ccccc12 | > 100 | > 100 | > 100 | > 100 | > 100 | > 100 | > 100 | > 100 | > 100 | > 100 | > 100 | > 100 | > 100 | > 100 | > 100 | > 100 | > 100 | > 100 | > 100 | > 100 |
| Cc1ccc(/C=C2\CCCC(CN(C)C)C2=O)cc1 (configuration not stated) | 2.88 | 8.9 | 3.23 | 3.1 | 3.12 |  | 29.5 |  | 3.9 | 3.07 | 7.19 | 3.34 | 3.38 | 3.57 | 12.5 | > 100 | 30.9 | 27.4 | 17.1 | 30.1 |
| CN1C=Cc2nccc3cc4c(c1c23)OCO4 | > 100 | 40.9 | 24.8 | 35.2 | 34.9 | > 100 | 66.3 | 11.3 | 39.2 | 27.5 | 19.3 | 7.61 | > 100 | 17.6 | 4.84 | > 77.3 | > 55.4 | 20.5 | 52.6 | 41 |
| CO[C@@H]1C[C@H]2N3CC[C@@]2(c2cc4c(cc2C3)OCO4)[C@H]2O[C@@H]12 | > 100 | > 100 | > 100 | > 100 | > 100 | > 100 | > 100 | > 100 | > 100 | > 100 | > 100 | > 100 | > 100 | > 100 | 0.303 | > 100 | > 100 | > 100 | > 100 | > 100 |
| CN(C)CC1CCCCCCCCCC(CN(C)C)C1=O (configuration not stated) | > 45.5 | 19.4 | > 40.6 | > 64.5 | > 53.3 | > 54.8 | > 63.6 | > 53.9 | > 54.4 | > 43.8 | > 46.3 | > 42.4 | > 37.2 | > 39.4 | 41.2 | 24.1 | > 51.5 | > 46.2 | 52.1 | > 55.6 |
| CCOC(=O)c1c(-c2ccc(Br)cc2)ccn1C | > 10 | > 10 | > 10 | > 10 |  | > 10 | > 10 | > 10 | > 10 | > 10 | > 10 | > 10 | > 10 | > 10 | > 10 | > 10 | > 10 | > 10 | > 10 | > 10 |
| COc1ccccc1N=N/C(=N\NC(=O)c1ccc(C)cc1)c1ccc(N(CCC#N)CCC#N)cc1C | > 100 | > 100 | > 100 | > 100 | > 100 | > 100 | > 100 | > 100 | > 100 | > 100 | > 100 | > 100 | > 100 | > 100 | 53.6 | > 100 | > 100 | > 100 | > 100 | > 100 |
| NC(Cc1ccc(S(=O)(=O)O)cc1)C(=O)NC(Cc1ccc(S(=O)(=O)O)cc1)C(=O)NC(Cc1ccc(S(=O)(=O)O)cc1)C(=O)O (configuration not stated) | > 100 | > 100 | > 100 | > 100 | > 100 | > 100 | > 100 | > 100 | > 100 | > 100 | > 100 | > 100 | > 100 | > 100 | > 100 | > 100 | > 100 | > 100 | > 100 |  |
| O=C(O)C1(Cc2ccc3c(c2)CCC3)Cc2ccccc2C1 | > 100 | > 100 | > 100 | > 100 | > 100 | > 100 | > 100 | > 100 | > 100 | > 100 | > 100 | > 100 | > 100 | > 100 | > 100 | > 100 | > 100 | > 100 | > 100 | > 100 |
| COc1ccc2c(c1)CCCN2S(=O)(=O)c1ccccc1[N+](=O)[O-] | > 100 | > 100 | > 100 | 88.9 | > 94.5 | > 89.4 | > 100 | > 96.8 | > 100 | 77.2 | > 100 | 55.9 | > 88.6 | > 100 | 62.2 | > 97.1 | > 100 | > 78 | > 85.6 | > 100 |
| Oc1cccc2cc(Br)cnc12 | > 100 | > 100 | > 100 | > 42.7 | > 76.1 | > 100 | > 100 | > 33.9 | > 100 | > 73.1 | > 69.2 | 88.2 | > 39.7 | > 100 | 48.1 | > 92.6 | > 100 | > 85 | 20.6 | > 100 |
| COc1ccc(/C=C2/NC(=S)N=C2Cl)cc1 | > 100 | > 100 | > 100 | > 100 | > 100 | > 100 | 37.9 | > 100 | > 100 | > 100 | > 100 | > 100 | > 100 | > 100 | > 100 | > 100 | > 100 | > 100 | > 100 | > 100 |
| CCCCCCOc1ccc(C(=O)N(C)O)cc1 | > 100 | 98 | 55.7 | > 100 | 60.9 | 61 | > 100 | 55.7 | > 100 | 27.5 | 30.3 | 97.6 | > 100 | > 100 | 62.5 | > 100 | 56.6 | > 100 | 57.1 | > 100 |
| CC(C)(C)OC(=O)C1=C2C=C(O)C=CC2(C)N(Cc2ccccc2)C1=N (configuration not stated) | 5.69 | 19.8 | 12.7 | 9.83 | 10.7 | 10.6 | 33.1 |  | 24.8 | 14 | 5.56 | 6.96 | 8.44 | 23.1 | 15.9 | > 91.6 | 28.1 | 26.2 | > 82.8 | 33.8 |
| CN(C)C=NCCN1CCOCC1 |  | > 100 | > 100 | > 100 | > 100 | > 100 | > 100 | > 100 | > 100 | > 100 | > 100 | > 100 | > 100 |  | > 100 | > 100 | > 100 | > 100 | > 100 | > 100 |
| CC(=O)c1cccc(NC(=O)C(=O)C(c2cnc3ccc([N+](=O)[O-])cc3n2)[N+](=O)[O-])c1 (configuration not stated) | > 100 | > 100 | > 100 | > 100 | > 100 | > 100 | > 100 | > 100 | > 100 | > 100 | > 100 | > 100 | > 100 | > 100 |  | > 100 |  | > 100 | > 100 | > 100 |
| CN(C)CCn1c(=O)c2ccc3c4c(nn3CCN(C)C)c3cc([N+](=O)[O-])ccc3n(c1=O)c24 | 0.979 | 0.576 | 0.277 | 0.325 | 0.363 | 0.959 | 0.448 | 0.942 | 2.93 |  | 0.975 | 0.434 | 1.16 | 0.433 | 1.98 | 2.82 | 1.23 | 1.68 | 0.701 | 1.08 |
| O=C(CN1CCOCC1)c1ccc2c(c1)oc(=O)n2CCN1CCCC1 | > 100 | > 100 | > 100 | > 100 |  | > 100 | > 100 | > 100 | > 100 | > 100 | > 100 | > 100 | > 100 | > 100 | > 100 | > 100 |  | > 100 | > 100 | > 100 |
| Cc1nc2ccc(NC3OC(CO)C(O)C(O)C3O)cc2c(=O)n1-c1ccccc1 (configuration not stated) | > 100 | > 100 | > 100 | > 100 | > 100 | > 100 | > 100 | > 100 | > 100 | > 100 | > 100 | > 100 | > 100 | > 100 | > 100 | > 100 |  | > 100 | > 100 | > 100 |
| N#Cc1c(O)cc(=O)n2c1[nH]c1ccccc12 | > 100 | > 100 | > 100 | > 100 | > 100 | > 100 | > 100 | > 100 |  | > 100 | > 100 | > 100 |  | > 100 | > 100 | > 100 | > 100 | > 100 | > 100 | > 100 |
